{
  "source": "paper PMC4474554",
  "about": "(PLoS ONE, 2015)",
  "key": {"HER2": {"system": "HER2", "conditions": "updated data; cited from earlier work"}, "KDR": {"system": "KDR", "set-up": "method as in earlier work", "conditions": "updated data; cited from earlier work"}, "BRAF (V600E)": {"system": "BRAF (V600E)", "set-up": "method as in earlier work", "conditions": "updated data; cited from earlier work"}, "ZAP-70": {"system": "ZAP-70", "set-up": "method as in earlier work", "conditions": "updated data; cited from earlier work"}, "SK-BR-3": {"system": "SK-BR-3", "assay": "MTS assay, SK-BR-3"}, "PC-9": {"system": "PC-9", "assay": "MTS assay, PC-9"}, "MKN45": {"system": "MKN45", "assay": "MTS assay, MKN45"}, "PDK1": {"system": "PDK1", "set-up": "method as in earlier work", "conditions": "updated data; cited from earlier work"}, "phospho-IGF-IR": {"system": "phospho-IGF-IR", "assay": "Western blotting, IGF-IR phosphorylation in NSCLC cell lines", "type": "cell-based", "conditions": "up to a concentration of 5 μM; PC-9, HCC827, NCI-H1975, RPC-9, NCI-H1299, NCI-H1819", "experimental": "(§1) Next, they were washed out with cold PBS and lysed in 1 × cell lysis buffer [20 mM Tris-HCl (pH 7.5), 150 mM NaCl, 1 mM Na2EDTA, 1 mM EGTA, 1% Triton, 2.5 mM sodium pyrophosphate, 1 mM beta-glycerophosphate, 1 mM Na3VO4, 1 μg/ml leupeptin] (Cell signaling Technology) supplemented with Complete, Mini (Roche, Basel, Switzerland) to extract protein. After the protein concentration was measured, equal amounts of total protein (30 μg) were separated by SDS-PAGE and transferred to PVDF membranes. The proteins on membranes were incubated overnight at 4°C with the primary antibodies. The following secondary antibodies were used: goat antirabbit or antimouse IgG-conjugated horseradish peroxidase (HRP) (Santa Cruz Biotechnology, Santa Cruz, CA). To detect specific signals, the membranes were incubated by ECL plus Western Blotting Detection Reagents (Amersham Biosciences UK Limited, Buckinghamshire, UK)."}, "IGF-1R": {"system": "IGF-1R", "set-up": "method as in earlier work", "conditions": "updated data; cited from earlier work"}, "NCI-H1819": {"system": "NCI-H1819", "assay": "MTS assay, NCI-H1819"}, "PDGFR": {"system": "PDGFR", "set-up": "method as in earlier work", "conditions": "updated data; cited from earlier work"}, "Calu-3": {"system": "Calu-3", "assay": "MTS assay, Calu-3"}, "PC-9 xenograft": {"system": "PC-9 xenograft", "assay": "PC-9 xenograft mouse model", "type": "in vivo, BALB/c-nu/nu female nude mice", "conditions": "oral, once a day, 14 days, 30, 60 and 90 mg/kg, dose-dependent", "experimental": "In this experiment, we used BALB/c-nu/nu female nude mice at 4–6 weeks of age that were purchased from Charles River Laboratories Japan, Inc (Yokohama, Japan). They were maintained under specific-pathogen-free conditions in accordance with the guidelines of the Animal Care and Use Committee at Okayama University. […] Every three days, body weight of the mice and the major axis and minor axis of each tumor were measured and calculated tumor volume using the following formula; (major axis) × (minor axis)^2 × 1/2 [37, 38]. For the 14 days, tumor volume, tumor growth rate and the body weight were analyzed as an average of the each group."}, "[1]": {"system": "phospho-EGFR and phospho-AKT", "assay": "Western blotting, EGFR and AKT phosphorylation in transfected HEK-293T", "type": "cell-based", "conditions": "HEK-293T cell with the mutant EGFR (L858R)", "experimental": "as §1"}, "NCI-H1299": {"system": "NCI-H1299", "assay": "MTS assay, NCI-H1299"}, "Flt-3": {"system": "Flt-3", "set-up": "method as in earlier work", "conditions": "updated data; cited from earlier work"}, "PKB/AKT": {"system": "PKB/AKT", "set-up": "method as in earlier work", "conditions": "updated data; cited from earlier work"}, "Ret (M918T)": {"system": "Ret (M918T)", "set-up": "method as in earlier work", "conditions": "updated data; cited from earlier work"}, "PKA": {"system": "PKA", "set-up": "method as in earlier work", "conditions": "updated data; cited from earlier work"}, "FGFR-1": {"system": "FGFR-1", "conditions": "updated data; cited from earlier work"}, "Pyk2": {"system": "Pyk2", "set-up": "method as in earlier work", "conditions": "updated data; cited from earlier work"}, "Lck": {"system": "Lck", "set-up": "method as in earlier work", "conditions": "updated data; cited from earlier work"}, "NCI-H1666": {"system": "NCI-H1666", "assay": "MTS assay, NCI-H1666"}, "Insulin-R": {"system": "Insulin-R", "set-up": "method as in earlier work", "conditions": "updated data; cited from earlier work"}, "Tek": {"system": "Tek", "set-up": "method as in earlier work", "conditions": "updated data; cited from earlier work"}, "FAK": {"system": "FAK", "set-up": "method as in earlier work", "conditions": "updated data; cited from earlier work"}, "c-Kit": {"system": "c-Kit", "set-up": "method as in earlier work", "conditions": "updated data; cited from earlier work"}, "c-Raf": {"system": "c-Raf", "set-up": "method as in earlier work", "conditions": "updated data; cited from earlier work"}},
  "note": "“And” between values parts separate entries of the source, which are not always exact repeats. Identical values can stand only once. “Also recorded” adds a separate entry of the source. Like-named read-outs stand apart in the source and are kept apart here.",
  "data": [
    {"compound": "CNC(=O)c1ccccc1Nc1nc(Nc2ccc(N3CCOCC3)cc2OC)ncc1Cl", "note": "[TAE226]", "values": [
      {"measurement": "IC50", "setting": "HER2", "value": 950, "unit": "nM"},
      {"measurement": "IC50", "setting": "KDR", "value": "[…]"},
      {"measurement": "IC50", "setting": "BRAF (V600E)", "value": 1400, "unit": "nM"},
      {"measurement": "IC50", "setting": "ZAP-70", "value": 7700, "unit": "nM"},
      {"measurement": "IC50", "setting": "SK-BR-3; read-out: IC50 (μM) (mean ± SD), SK-BR-3 (breast cancer), HER2 amplification, MTS, TAE226 48 hours", "value": "35.1 ± 0.53", "unit": "µM"},
      {"measurement": "IC50", "setting": "SK-BR-3; read-out: each IC50, SK-BR-3, independent MTS assays", "value": "34.6 µM and 35.6 µM"},
      {"measurement": "IC50", "setting": "PC-9; read-out: IC50 (μM) (mean ± SD), PC-9, EGFR Exon 19 del (E746-A750), MTS, TAE226 48 hours, gefitinib 72 hours", "value": "0.16 ± 0.01", "unit": "µM"},
      {"measurement": "IC50", "setting": "PC-9; read-out: each IC50, PC-9, independent MTS assays", "value": "[…]"},
      {"measurement": "IC50", "setting": "PC-9; read-out: mean IC50, PC-9, mean of independent MTS assays", "value": 0.16, "unit": "µM"},
      {"measurement": "IC50", "setting": "MKN45; read-out: IC50 (μM) (mean ± SD), MKN45 (gastric cancer), MET amplification, MTS, TAE226 48 hours", "value": "1.1 ± 0.06", "unit": "µM"},
      {"measurement": "IC50", "setting": "MKN45; read-out: each IC50, MKN45, independent MTS assays", "value": "1.04 µM and 1.16 µM"},
      {"measurement": "IC50", "setting": "PDK1", "value": "> 10000", "unit": "nM"},
      {"measurement": "phosphorylation of IGF-IR (Tyr1131)", "setting": "phospho-IGF-IR", "value": "not significantly inhibited; also recorded: not suppressed"},
      {"measurement": "IC50", "setting": "IGF-1R", "value": "[…]"},
      {"measurement": "IC50", "setting": "NCI-H1819; read-out: IC50 (μM) (mean ± SD), NCI-H1819, HER2 amplification, MTS, TAE226 48 hours, gefitinib 72 hours", "value": "3.8 ± 0.4", "unit": "µM"},
      {"measurement": "IC50", "setting": "NCI-H1819; read-out: each IC50, NCI-H1819, independent MTS assays", "value": "4 µM and 3.2 µM and 4.1 µM"},
      {"measurement": "IC50", "setting": "PDGFR", "value": 2600, "unit": "nM"},
      {"measurement": "IC50", "setting": "Calu-3; read-out: IC50 (μM) (mean ± SD), Calu-3, HER2 amplification, MTS, TAE226 48 hours, gefitinib 72 hours", "value": "4.1 ± 0.37", "unit": "µM"},
      {"measurement": "IC50", "setting": "Calu-3; read-out: each IC50, Calu-3, independent MTS assays", "value": "4.5 µM and 3.8 µM"},
      {"measurement": "tumor volume / tumor growth compared with vehicle-treated mice", "setting": "PC-9 xenograft", "value": "significantly decreased; also recorded: significantly inhibited"},
      {"measurement": "phosphorylations of EGFR and AKT", "setting": "[1]", "value": "inhibited"},
      {"measurement": "IC50", "setting": "NCI-H1299; read-out: IC50 (μM) (mean ± SD), NCI-H1299, no alterations, MTS, TAE226 48 hours, gefitinib 72 hours", "value": "2.8 ± 0.26", "unit": "µM"},
      {"measurement": "IC50", "setting": "NCI-H1299; read-out: each IC50, NCI-H1299, independent MTS assays", "value": "3.1 µM and 3 µM and 2.7 µM and 2.4 µM"},
      {"measurement": "IC50", "setting": "Flt-3", "value": "[…]"},
      {"measurement": "IC50", "setting": "PKB/AKT", "value": "> 10000", "unit": "nM"},
      {"measurement": "IC50", "setting": "Ret (M918T)", "value": "[…]"},
      {"measurement": "IC50", "setting": "PKA", "value": "> 10000", "unit": "nM"},
      {"measurement": "IC50", "setting": "FGFR-1", "value": "[…]"},
      {"measurement": "IC50", "setting": "Pyk2", "value": 40, "unit": "nM"},
      {"measurement": "IC50", "setting": "Lck", "value": "[…]"},
      {"measurement": "IC50", "setting": "NCI-H1666; read-out: IC50 (μM) (mean ± SD), NCI-H1666, BRAF Exon 11 (G466V), MTS, TAE226 48 hours, gefitinib 72 hours", "value": "0.42 ± 0.08", "unit": "µM"},
      {"measurement": "IC50", "setting": "NCI-H1666; read-out: each IC50, NCI-H1666, independent MTS assays", "value": "0.5 µM and 0.34 µM"},
      {"measurement": "IC50", "setting": "Insulin-R", "value": 44, "unit": "nM"},
      {"measurement": "IC50", "setting": "Tek", "value": 580, "unit": "nM"},
      {"measurement": "IC50", "setting": "FAK", "value": 5.5, "unit": "nM"},
      {"measurement": "IC50", "setting": "c-Kit", "value": "> 10000", "unit": "nM"},
      {"measurement": "IC50", "setting": "c-Raf", "value": "> 10000", "unit": "nM"}
    ]}
  ]
}
